In patent US10588935B2, “FC receptor (FcRn) binding peptides and uses thereof” (THE BRIGHAM AND WOMEN'S HOSPITAL, INC., priority 2013, dated 2020):
Where “and” joins values, the source holds several entries; their conditions need not be identical. Identical values can stand only once. Entries after “also recorded” stand apart in the source; their conditions may differ. Like-named read-outs stand apart in the source and are kept apart here. Bridge positions count the residues as written; N and C are the ends. Peptide text beside a SMILES is read from it.

Columns and labels:
soluble human FcRn = molecular target: T1, soluble human FcRn (Homo sapiens, UniProt P55899); test: SPR (Biacore) affinity of peptides for immobilized soluble human FcRn; format: binding
T1 construct: Soluble human FcRn was expressed and purified by Biogen-Idec as previously described (29)
Procedure, shortened: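 FcRn amine-coupled to CM5 chip; binding run at pH 6.0 or 7.4 in 50 mM phosphate, 100 mM NaCl, 0.01% P20, with 5-minute dissociation and pH 8.0 Tris regeneration. KD derived from sensorgrams with a 1:1 binding model; end-of-association responses plotted versus concentration.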

FcRn [1] = molecular target: T2, FcRn (Homo sapiens, UniProt P55899); test: Competition for albumin or IgG binding to FcRn; set-up: Soluble human FcRn was expressed and purified by Biogen-Idec as previously described (29); details: for competition with IgG or albumin for the FcRn binding site: competition experiments / SPR; for Competition for albumin or IgG binding to FcRn: Table 3
Description: Peptide phage libraries, obtained from Dyax Corp, were screened against biotinylated soluble human FcRn bound to streptavidin beads, using 3 rounds of sequential pH 6.0 binding and pH 7.5 elution/amplification protocols. […] Peptide SYN514 was utilized during a 2nd peptide phage screen to occupy this site on FcRn prior to the addition of the phage libraries, and to identify albumin-competitive sequences. This strategy uncovered the albumin-competitive peptide, SYN571, and through structure-activity relationships, the shorter sequence SYN1753 (Ac-[…]-CONH2 (SEQ ID NO: 1) (disulfide) which bound to shFcRn with equivalent affinity as determined by SPR.

shFcRn binding to HSA = shFcRn binding to HSA (Homo sapiens, UniProt P55899); test: SPR screening of FcRn binding peptides for inhibition of shFcRn binding to immobilized HSA; details: 14 uM peptide, 5 uM shFcRn, pH 6
Experimental: Unreacted sites were then capped by injecting a solution of ethanolamine over the chip surface. A reference flow cell was activated with EDC/NHS and then blocked with ethanolamine.
Samples were injected over the chip for 3 minutes at 20 uL/min followed by a 2.5 minute dissociation phase.

[2] = system: MDCK II cells expressing hFcRn and hβ2m; test: FcRn dependent albumin transcytosis bioassay; format: cell-based, canine; details: input chamber pH 6.0, exit pH 7.4, 2 hours, compared to scrambled peptide or isotype control
Experimental: Albumin transcytosis assays were performed as previously described for IgG. In brief, MDCK II cells expressing hβ2m and hFcRn were grown to confluence on transwells (Costar) and allowed to polarize over 4 days. 12 hours before the transcytosis experiment, the medium was changed to serum-free media without antibiotics. On the day of experiment, the transwells were incubated with HBSS pH 7.4 for 20 minutes before placing on a new 12 well plate (Costar) where the input chamber contains HBSS pH 6.0 and the exit chamber contains HBSS pH 7.4 and pH adjusted albumin was added to the input chamber afterwards. For blocking albumin transcytosis with the peptide inhibitors SYN1753 and SYN3258, transwells were pre-incubated for 20 min with the respective peptides in HBSS pH 6.0 prior to the addition of albumin in the continued presence of the peptides. After incubating for 2 hours in 37° C. and 5% CO2, the medium at the opposite chamber were harvested and the albumin concentration was measured using ELISA method. For the recycling assay, the transwells were washed with HBSS pH 7.4 for 5 minutes before placing on a new 12-well plate with HBSS pH 6.0 at both chambers. After equilibration at 37° C. and 5% CO2, pH adjusted albumin human albumin was added and allowed to incubate for one hour. The transwells were then washed at HBSS pH 6.0 before placing in a new 12-well plate with HBSS pH 7.4 at both chambers. After one hour incubation, medium from the input chamber was removed and the albumin concentration was measured by ELISA. For the human albumin secretion assay the medium was changed to serum- and antibiotic-free media on the day of the experiment. 50 μL of the medium from both chambers were removed periodically over 24 hours, and the human albumin concentration was measured using ELISA with volume reduction adjustment.

[3] = system: hFCGRT^Tg/hB2m^Tg/mFcgrt^−/− mice; test: In vivo acetaminophen toxicity with blockade of FcRn-albumin interaction; set-up: species or system mouse; details: 40 mg/kg body weight per day via i.p. osmotic pump; vs control peptide
Experimental: In vivo acetaminophen toxicity experiments: Acetaminophen (Sigma-Aldrich) was diluted in PBS at a concentration of 33.3 mg/ml. […] In blocking experiments using antibody administration, ADM31 or isotype control were administered 14 h prior to the injection of APAP. For blocking the interaction between FcRn and albumin via peptide, a cyclic control peptide for SYN3258 was designed in which three key residues per monomer that were identified by alanine screening to be critical for binding between FcRn and albumin were mutated to alanines (W7A, W11A, […]). SYN3258 or the control peptide were then continuously administered at a dose of 40 mg/kg body weight per day via i.p. osmotic pumps (Alzet, Cupertino, Cat. No 1003D) over a 72 hour period. Prior to the surgical implantation of the pumps, mice were anaesthetized with Buprenex (0.1 mg/kg body weight) s.c. and Ketamine HCl (100 mg/kg)/Xylazine (10 mg/kg) i.p. Hair on the incision site was clipped and the implantation area was disinfected by 5% iodine in 70% isopropanol. Antibiotics (100 μg/ml of gentamycin) were sprayed on the area of incision to prevent infection, and skin was sutured using polypropylene suture. Total duration of the surgical procedure was around 5 minutes per mouse. 18-20 hours after pump implantation, a lethal dose of acetaminophen was administered i.p.

FcRn [4] = molecular target: T2, FcRn; details: Mezo, PNAS, 2007; cited from earlier work
[5] = Table 2, pH 6, immobilized shFcRn, data fit steady state or 2 site, read-out: Kd, pH 6** Biacore
[6] = pH 6.0, read-out: affinity for FcRn by SPR

T2 sequence (P55899 24-297 limits assumed): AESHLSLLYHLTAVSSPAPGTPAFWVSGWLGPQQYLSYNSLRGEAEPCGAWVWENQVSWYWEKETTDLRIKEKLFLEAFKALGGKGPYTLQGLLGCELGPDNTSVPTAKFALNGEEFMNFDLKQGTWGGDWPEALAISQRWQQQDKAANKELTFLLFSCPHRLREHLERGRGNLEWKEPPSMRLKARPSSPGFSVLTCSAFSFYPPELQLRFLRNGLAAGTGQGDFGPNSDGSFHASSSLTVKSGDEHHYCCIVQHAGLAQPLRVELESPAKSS
T2 sequence (P61769 21-119 partner): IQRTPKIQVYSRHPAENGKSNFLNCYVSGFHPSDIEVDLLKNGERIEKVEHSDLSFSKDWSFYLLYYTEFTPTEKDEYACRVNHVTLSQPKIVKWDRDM
T1 sequence (P55899 24-297 limits assumed): as the sequence (P55899 24-297 limits assumed) above
T1 sequence (P61769 21-119 partner): as the sequence (P61769 21-119 partner) above
shFcRn binding to HSA, sequence (P55899 24-297 limits assumed): as the sequence (P55899 24-297 limits assumed) above
shFcRn binding to HSA, sequence (P61769 21-119 partner): as the sequence (P61769 21-119 partner) above

In the case of CC(=O)N[C@@H](C)C(=O)NCC(=O)N[C@@H](CCCNC(=N)N)C(=O)N[C@@H](Cc1ccc(O)cc1)C(=O)N[C@@H](Cc1ccccc1)C(=O)N[C@H]1CSSC[C@@H](C(=O)N[C@@H](CCC(=O)O)C(=O)N[C@@H](CCC(=O)O)C(=O)N[C@H](C(=O)NCC(=O)N[C@H](C(=O)NCC(=O)NCC(=O)NCC(=O)N[C@@H](CCCCN)C(N)=O)[C@@H](C)O)C(C)C)NC(=O)[C@H](Cc2c[nH]c3ccccc23)NC(=O)CNC(=O)[C@H](Cc2c[nH]cn2)NC(=O)[C@H](CCCCN)NC(=O)[C@H](Cc2c[nH]c3ccccc23)NC(=O)[C@H](CCCCN)NC(=O)[C@H]([C@@H](C)O)NC1=O [SYN571] (Ac-AGRYFCTKWKHGWCEEVGTGGGK-NH2; disulfide 6-14), the “Kd Ratio 7.4/6.0” value (soluble human FcRn; Table 1) is reported as 29, the Kd (soluble human FcRn; Table 1, pH 6, shFcRn immobilized on the sensor chip, steady state fit, read-out: Kd, pH 6** Biacore) is reported as 0.45 µM and 0.5 µM and the Kd (soluble human FcRn; Table 1, pH 7.4, shFcRn immobilized, read-out: Kd, pH 7.4 Biacore) is reported as 13.1 µM. The “competition with IgG or albumin for the FcRn binding site” value (from here on “competition with IgG or albumin”) (FcRn [1]) was “albumin-competitive; also recorded: inhibit shFcRn:albumin interactions, but not those of IgG: shFcRn” and the “block of shFcRn binding to immobilized HSA” value (“block of shFcRn binding” for short) (shFcRn binding to HSA) was “completely block”.
In the case of “Ac-AGVMHCFWDEEFKCDQGGTGGGK-CONH2 (Ac-AGVMHCFWDEEFKCDQGGTGGGK-NH2; disulfide 6-14 (inferred)) [SYN514]”, the “competition with IgG or albumin” value (FcRn [1]) is reported as “non-IgG, non-albumin competitive”.
In the case of CSCC[C@H](NC(=O)[C@@H](NC(C)=O)C(C)C)C(=O)N[C@@H](Cc1c[nH]cn1)C(=O)N[C@H]1CSSC[C@@H](C(=O)N[C@@H](CCC(=O)O)C(=O)N[C@@H](Cc2ccc(O)cc2)C(=O)N[C@H](C(N)=O)C(C)C)NC(=O)[C@H](CCCNC(=N)N)NC(=O)[C@H](Cc2ccccc2)NC(=O)[C@H](CCC(=O)O)NC(=O)[C@H](CCC(=O)O)NC(=O)[C@H](CC(=O)O)NC(=O)[C@H](Cc2c[nH]c3ccccc23)NC(=O)[C@H](Cc2ccccc2)NC1=O [SYN1383] (Ac-VMHCFWDEEFRCEYV-NH2; disulfide 4-12 (inferred)), the “Kd Ratio 7.4/6.0” value (soluble human FcRn; Table 2) is reported as 34, the Kd (soluble human FcRn; [5]) is reported as 0.032 µM and the Kd (soluble human FcRn; Table 2, pH 7.4, data only 100 uM, therefore Kd may be higher, read-out: Kd, pH 7.4 Biacore) is reported as 1.1 µM. For the same molecule, the “Competition for albumin or IgG binding to FcRn” value (FcRn [1]) was “none”, the “competition with IgG or albumin” value (FcRn [1]) was “not been shown to be competitive with IgG or any other proteins; also recorded: does not block IgG binding to FcRn; also recorded: non-IgG, non-albumin competitive” and the “block of shFcRn binding” value (shFcRn binding to HSA) was “not able to block the binding of shFcRn to HSA”.
With CC(=O)N[C@@H](CCCNC(=N)N)C(=O)N[C@@H](Cc1ccc(O)cc1)C(=O)N[C@@H](Cc1ccccc1)C(=O)N[C@H]1CSSC[C@@H](C(=O)N[C@@H](CCC(=O)O)C(=O)N[C@@H](CCC(=O)O)C(=O)N[C@H](C(=O)NCC(=O)N[C@H](C(N)=O)[C@@H](C)O)C(C)C)NC(=O)[C@H](Cc2c[nH]c3ccccc23)NC(=O)CNC(=O)[C@H](Cc2c[nH]cn2)NC(=O)[C@H](CCCCN)NC(=O)[C@H](Cc2c[nH]c3ccccc23)NC(=O)[C@H](CCCCN)NC(=O)[C@H]([C@@H](C)O)NC1=O [SYN1753] the Kd (soluble human FcRn; Table 3, pH 6.0, read-out: Kd, pH 6.0 (Biacore μM)) was 0.5 µM, the Kd (soluble human FcRn; [6]) was ~0.5 µM and the “transcytosis of human albumin” value [2] was “capable of blocking transcytosis of human albumin; also recorded: significantly reducing”.
With CC(=O)N[C@@H](CCCNC(=N)N)C(=O)N[C@@H](Cc1ccc(O)cc1)C(=O)N[C@@H](Cc1ccccc1)C(=O)N[C@H]1CSSC[C@@H](C(=O)N[C@@H](CCC(=O)O)C(=O)N[C@@H](CCC(=O)O)C(=O)N[C@H](C(=O)NCC(=O)N[C@H](C(=O)NCC(=O)NCC(=O)NCC(=O)N[C@@H](CCCNC(=N)N)C(=O)N[C@@H](Cc2ccc(O)cc2)C(=O)N[C@@H](Cc2ccccc2)C(=O)N[C@H]2CSSC[C@@H](C(=O)N[C@@H](CCC(=O)O)C(=O)N[C@@H](CCC(=O)O)C(=O)N[C@H](C(=O)NCC(=O)N[C@H](C(N)=O)[C@@H](C)O)C(C)C)NC(=O)[C@H](Cc3c[nH]c4ccccc34)NC(=O)CNC(=O)[C@H](Cc3c[nH]cn3)NC(=O)[C@H](CCCCN)NC(=O)[C@H](Cc3c[nH]c4ccccc34)NC(=O)[C@H](CCCCN)NC(=O)[C@H]([C@@H](C)O)NC2=O)[C@@H](C)O)C(C)C)NC(=O)[C@H](Cc2c[nH]c3ccccc23)NC(=O)CNC(=O)[C@H](Cc2c[nH]cn2)NC(=O)[C@H](CCCCN)NC(=O)[C@H](Cc2c[nH]c3ccccc23)NC(=O)[C@H](CCCCN)NC(=O)[C@H]([C@@H](C)O)NC1=O [SYN3258] (Ac-RYFCTKWKHGWCEEVGTGGGRYFCTKWKHGWCEEVGT-NH2; disulfide 4-12, 24-32) the Kd (soluble human FcRn; [6]) was 0.0036 µM, the “protection from liver injury (serum ALT) after lethal dose of APAP” value [3] was “conferred protection from liver injury” and the “survival rate after lethal dose of APAP” value [3] was “improve the survival rate”. The “transcytosis of human albumin” value [2] was “capable of blocking transcytosis of human albumin; also recorded: inhibit FcRn-directed transcytosis of albumin” and the “transcytosis of human albumin” value ([2]; listed as Syn3258) was “significantly reducing”.
For CC(=O)N[C@@H](CCCNC(=N)N)C(=O)N[C@@H](Cc1ccccc1)C(=O)N[C@@H]1C(=O)N[C@@H]([C@@H](C)O)C(=O)NCC(=O)N[C@@H](Cc2c[nH]cn2)C(=O)N[C@@H](Cc2ccccc2)C(=O)NCC(=O)N(C)CC(=O)N(C)[C@@H](CC(C)C)C(=O)N[C@@H](Cc2ccc(O)cc2)C(=O)N2CCC[C@H]2C(=O)N[C@H](C(N)=O)CSSC1(C)C [SYN1327, Ac-RF-Pen-TGHFG-Sar-NMeLeu-YPC-CONH2, reference compound], the “Competition for albumin or IgG binding to FcRn” value (FcRn [1]) was “IgG”, the “competition with IgG or albumin” value (FcRn [1]) was “competes for binding of IgG” and the “block of shFcRn binding” value (shFcRn binding to HSA) was “not able to compete for HSA binding”. The “block of IgG binding to hFcRn” value (FcRn [4]) was “block the binding of IgG to hFcRn”.
For CSCC[C@H](NC(=O)[C@H](Cc1ccc(O)cc1)NC(C)=O)C(=O)N[C@H](C(=O)N[C@H]1CSSC[C@@H](C(=O)N[C@@H](CCC(=O)O)C(=O)N[C@@H](Cc2ccc(O)cc2)C(N)=O)NC(=O)[C@H](CO)NC(=O)[C@H](Cc2ccccc2)NC(=O)CNC(=O)[C@H](CC(=O)O)NC(=O)[C@H](CC(=O)O)NC(=O)[C@H](Cc2c[nH]c3ccccc23)NC(=O)[C@H](CCCCN)NC1=O)[C@@H](C)O [SYN1164] (Ac-YMTCKWDDGFSCEY-NH2; disulfide 4-12 (inferred)), the Kd (soluble human FcRn; [5]) was 0.57 ± 0.02 µM.
